Measurements as given in paper PMC10777848 (Antimicrobial Agents and Chemotherapy, 2023).
“And” between values parts separate entries of the source, which are not always exact repeats. Identical values can stand only once. Like-named read-outs stand apart in the source and are kept apart here. One block for each compound: values may come before it.

Tests used:
[1] = design: method as in data on file Entasis Therapeutics; details: mean of mouse plasma protein unbound fractions ex vivo, 0.4 µM to 50 µM; ref data on file Entasis Therapeutics; cited from earlier work
[2] = based on total ELF and plasma AUC exposures; cited from earlier work
A. baumannii [3] = assay: Murine neutropenic thigh and lung models taken together; type: in vivo, CD-1 mice
Experimental: (§1) Magnitudes associated with 1-log10 and 2-log10 CFU reduction from baseline at 24 hours as well as the exposure required for an 80% reduction in bacterial burden (EC80) were determined from the fitted function.

A. baumannii [4] = details: in vitro pharmacodynamic models; cited from earlier work
A. baumannii [5] = type: in vivo
Experimental: as §1

in vivo = details: CD-1, mouse
[6] = Distribution into mouse ELF (plasma and BAL sampling); details: 100:25 mg/kg sulbactam:durlobactam SC, neutropenic mice infected with ARC2058
A. baumannii [7] = assay: Murine neutropenic lung infection model, PK/PD exposure-response; type: in vivo, CD-1 mice
Experimental: as §1

A. baumannii [8] = tested on: A. baumannii; design: method as in PMID 34349751; details: cited from earlier work
[9] = Population PK in infected neutropenic mice (two-compartment model)
Text: As the plasma PK of neutropenic lung-infected animals matched that of thigh-infected animals, the thigh-infected PK was used for the development of the population PK model and subsequent exposure estimates for doses used in the PK/PD exposure-response analyses. Pharmacokinetic models were fit to time vs. drug concentration profiles generated in infected mice using Phoenix6.2 WinNonLin and NLME. […] Predicted exposures were utilized in the PK/PD analyses as all dosing solutions tested were within the variability of the bioanalytical method (20%).

[10] = tested on: 4,038 recent, global, clinical isolates of A. baumannii; design: method as in PMID 36005804; details: 4,038 global clinical isolates, cited from earlier work
A. baumannii isolates = assay: Broth MIC testing (CLSI methodology); type: cell-based; details: Acinetobacter baumannii, modal MIC, combination = sulbactam with fixed 4 µg/mL durlobactam
Text: All strains with an “ARC” designation are part of the Entasis collection of clinical isolates. All isolates have been previously characterized by whole genome sequencing.

A. baumannii [11] = type: in vivo; details: thigh model; oral 200 mg/kg bid; A. baumannii ARC2058; 24 h
[12] = mean of thigh 4:1, lung 4:1 and thigh fixed SUL dose
[13] = thigh (4:1 dose), 5 strains, SUL mean exposure 32.9 to 43.5%T>MIC, 24 h
[14] = sulbactam and durlobactam co-administered 4:1 SC, predicted value (% coefficient of variance)
[15] = thigh model, A. baumannii ARC2058, SC q6h, 24 h
[16] = lung model, A. baumannii ARC2058, SC q6h, 24 h
[17] = co-modeled thigh (n = 6 strains), sulbactam alone and combined with durlobactam
[18] = thigh, ARC2058, sulbactam only, 24 h
[19] = thigh, ARC3484, sulbactam:durlobactam 4:1 dosing, 24 h
[20] = thigh, ARC5081, sulbactam:durlobactam 4:1 dosing, 24 h
[21] = thigh, ARC5091, sulbactam:durlobactam 4:1 dosing, 24 h
[22] = thigh, mean of individual CRAB strains, 4:1 dosing

SMILES: CC1=C[C@@H]2CN(C(=O)N2OS(=O)(=O)O)[C@@H]1C(N)=O [Durlobactam, durlobactam]
- murine unbound fraction [1]: 100%
- ELF penetration observed clinically [2]: 37%
- durlobactam fAUC/MIC0-24 at which an additional log10 CFU reduction can be realized (A. baumannii [3]; both thigh and lung models, in combination with sulbactam): ~ 30
- durlobactam fAUC/MIC0-24 at which 1-log10 CFU reduction over 24 hours can be realized (A. baumannii [3]; both thigh and lung models, in combination with sulbactam, co-modeled across strains): 10 and ~ 10
- Durlobactam fAUC/MIC ratio for 1-log10 CFU reduction from baseline, Mean ± SD (A. baumannii [3]; [12]): 8.7 ± 1.7
- Durlobactam fAUC/MIC ratio for 2-log10 CFU reduction from baseline, Mean ± SD (A. baumannii [3]; [12]): 23.4 ± 7.9
- Durlobactam fAUC/MIC ratio for EC80, Mean ± SD (A. baumannii [3]; [12]): 44.0 ± 32.1
- durlobactam AUC/MIC associated with net 1-log10 CFU reduction over 24 hours (A. baumannii [4]): > 10 and 10
- Co-modeled durlobactam fAUC/MIC ratio for EC80 (A. baumannii [5]; mouse, in vivo): 38.2
- Co-modeled durlobactam fAUC/MIC ratio for 1-log10 CFU reduction from baseline (A. baumannii [5]; [13]): 8.0
- Co-modeled durlobactam fAUC/MIC ratio for 2-log10 CFU reduction from baseline (A. baumannii [5]; [13]): 16.0
- Co-modeled durlobactam fAUC/MIC ratio for EC80 (A. baumannii [5]; [13]): 15.1
- Kp (in vivo; epithelial lining fluid (ELF) / plasma, subcutaneous): 0.63
- AUC (in vivo; in vivo, sc, 25 mg/kg): 7000 ng·h/mL
- Kp (in vivo; in vivo, sc, 25 mg/kg): 0.63
- concentration at 1 h (in vivo; in vivo, sc, 25 mg/kg): 4070 ± 1790 ng/mL
- concentration at 3 h (in vivo; in vivo, sc, 25 mg/kg): 330 ± 130 ng/mL
- concentration at 12 h (in vivo; in vivo, sc, 25 mg/kg): 10 ± 1 ng/mL
- AUC, ELF [6]: 4400 ng·h/mL
- Concentration, ELF ([6]; 1 h): 2480 ± 910 ng/mL
- Concentration, ELF ([6]; 3 h): 260 ± 150 ng/mL
- Concentration, ELF ([6]; 6 h): 2 ± 1 ng/mL
- Concentration, Plasma ([6]; 6 h): 30 ± 10 ng/mL
- Concentration, ELF ([6]; 12 h): BLQ
- Co-modeled durlobactam fAUC/MIC ratio for 1-log10 CFU reduction from baseline (A. baumannii [7]; mouse, in vivo): 10.6
- Co-modeled durlobactam fAUC/MIC ratio for 2-log10 CFU reduction from baseline (A. baumannii [7]; mouse, in vivo): 22.4
- Co-modeled durlobactam fAUC/MIC ratio for EC80 (A. baumannii [7]; mouse, in vivo): 78.6
- intrinsic antibacterial activity against A. baumannii on its own (A. baumannii [8]): no significant intrinsic antibacterial activity
- Cl1 (clearance of central compartment) [9, 14]: 3.0747 (7.3) L/kg/h
- Ka (absorption rate) [9, 14]: 13.5 (32.6) 1/hr
- V1 (central compartment volume of distribution) [9, 14]: 1.2508 (8.4) L/kg

- Meropenem %fT>MIC for 1-log10 CFU/g reduction from baseline (A. baumannii [5]; [15]): 27.2%
- Meropenem %fT>MIC for 2-log10 CFU/g reduction from baseline (A. baumannii [5]; [15]): 32.4%
- Meropenem %fT>MIC for EC80 (A. baumannii [5]; [15]): 36.0%
- Meropenem %fT>MIC for 1-log10 CFU/g reduction from baseline (A. baumannii [7]; [16]): 29.4%
- Meropenem %fT>MIC for 2-log10 CFU/g reduction from baseline (A. baumannii [7]; [16]): 32.2%
- Meropenem %fT>MIC for EC80 (A. baumannii [7]; [16]): 39.7%
SMILES: C[C@@H](O)[C@H]1C(=O)N2C(C(=O)O)=C(S[C@@H]3CN[C@H](C(=O)N(C)C)C3)[C@H](C)[C@H]12 [Meropenem, meropenem]

SMILES: CC1(C)[C@H](C(=O)O)N2C(=O)C[C@H]2S1(=O)=O [Sulbactam, sulbactam]
- murine unbound fraction [1]: 100%
- sulbactam fT>MIC at which 1-log10 CFU reduction over 24 hours can be realized (A. baumannii [3]; both thigh and lung models, in combination with durlobactam, co-modeled across strains): exceeds 50%
- sulbactam fT>MIC at which 2-log10 CFU reduction was achieved (A. baumannii [3]; present in vivo study, sulbactam-susceptible isolate ARC2058): exceeded 50%
- Sulbactam %fT>MIC for 2-log10 CFU reduction from baseline (A. baumannii [5]; [17]): 38.2%
- Sulbactam %fT>MIC for EC80 (A. baumannii [5]; [17]): 44.1%
- Sulbactam %fT>MIC for 1-log10 CFU reduction from baseline (A. baumannii [5]; [18]): 20.5%
- Sulbactam %fT>MIC for 2-log10 CFU reduction from baseline (A. baumannii [5]; [18]): 31.5%
- Sulbactam %fT>MIC for EC80 (A. baumannii [5]; [18]): 47.0%
- Sulbactam %fT>MIC for 2-log10 CFU reduction from baseline (A. baumannii [5]; [19]): 40.2%
- Sulbactam %fT>MIC for EC80 (A. baumannii [5]; [19]): 42.8%
- Sulbactam %fT>MIC for EC80 (A. baumannii [5]; thigh, ARC3486, sulbactam:durlobactam 4:1 dosing, 24 h): 55.3%
- Sulbactam %fT>MIC for EC80 (A. baumannii [5]; thigh, ARC5079, sulbactam:durlobactam 4:1 dosing, 24 h): 53.2%
- Sulbactam %fT>MIC for 1-log10 CFU reduction from baseline (A. baumannii [5]; [20]): 26.3%
- Sulbactam %fT>MIC for 2-log10 CFU reduction from baseline (A. baumannii [5]; [20]): 28.8%
- Sulbactam %fT>MIC for EC80 (A. baumannii [5]; [20]): 32.0%
- Sulbactam %fT>MIC for 1-log10 CFU reduction from baseline (A. baumannii [5]; [21]): 26.7%
- Sulbactam %fT>MIC for 2-log10 CFU reduction from baseline (A. baumannii [5]; [21]): 29.3%
- Sulbactam %fT>MIC for EC80 (A. baumannii [5]; [21]): 30.4%
- Sulbactam %fT>MIC for 2-log10 CFU reduction from baseline, Mean ± SD (A. baumannii [5]; [22]): 38.6 ± 10.0%
- Sulbactam %fT>MIC for EC80, Mean ± SD (A. baumannii [5]; [22]): 42.7 ± 11.6%
- AUC, ELF [6]: 10300 ng·h/mL
- AUC, Plasma [6]: 32300 ng·h/mL
- Concentration, ELF ([6]; 1 h): 5700 ± 1150 ng/mL
- Concentration, Plasma ([6]; 1 h): 18550 ± 5870 ng/mL
- Concentration, ELF ([6]; 3 h): 540 ± 120 ng/mL
- Concentration, Plasma ([6]; 3 h): 1690 ± 560 ng/mL
- Concentration, ELF ([6]; 6 h): 290 ± 140 ng/mL
- Concentration, Plasma ([6]; 6 h): 100 ± 50 ng/mL
- Concentration, ELF ([6]; 12 h): 60 ± 10 ng/mL
- Concentration, Plasma ([6]; 12 h): 20 ± 10 ng/mL
- V1 (central compartment volume of distribution) ([9]; sulbactam alone, SC, predicted value): 1.8847 L/kg
- Ka (absorption rate) ([9]; sulbactam alone, SC, predicted value (% coefficient of variance)): 6 (12.5) 1/hr
- Ka (absorption rate) [9, 14]: 12 (8.4) 1/hr
- V1 (central compartment volume of distribution) [9, 14]: 1.0177 (7.0) L/kg
- MIC90 of sulbactam ([10]; sulbactam alone): 64 µg/mL
- MIC90 of sulbactam ([10]; with the addition of durlobactam): 2 µg/mL
- MIC (A. baumannii isolates; A. baumannii ARC2058): 2 µg/mL
- MIC (A. baumannii isolates; A. baumannii ARC3484): 16 µg/mL
- MIC (A. baumannii isolates; A. baumannii ARC3486): 32 µg/mL
- MIC (A. baumannii isolates; A. baumannii ARC5077): 16 µg/mL
- MIC (A. baumannii isolates; A. baumannii ARC5079): 32 µg/mL
- MIC (A. baumannii isolates; A. baumannii ARC5081): 16 µg/mL
- MIC (A. baumannii isolates; A. baumannii ARC5091): 8 µg/mL
- MIC (A. baumannii isolates; A. baumannii ARC5950): 64 µg/mL
- MIC (A. baumannii isolates; A. baumannii ARC5954): 32 µg/mL
- MIC (A. baumannii isolates; A. baumannii ARC5955): 64 µg/mL

SMILES: C[C@H]1COc2c(N3CCN(C)CC3)c(F)cc3c(=O)c(C(=O)O)cn1c23 [levofloxacin]
- change in log10 CFU (positive control) (A. baumannii [11]): −2.4 log10 CFU
- log10 CFU/g reduction (positive control) (A. baumannii [7]; lung model, oral 200 mg/kg bid, A. baumannii ARC2058, 24 h): 1.8 log10 CFU/g
